Assay results taken from article PMC11597446, “Using the Cocrystal Approach as a Promising Drug Delivery System to Enhance the Dissolution and Bioavailability of Formononetin Using an Imidazole Coformer” (Pharmaceuticals, 2024).
Entries after “also recorded” stand apart in the source; their conditions may differ. Read-outs that look alike come from different tables or passages of the source.

Legend:
[1] = Rat oral pharmacokinetics; assay type: in vivo, Male Sprague-Dawley rats; conditions: rats, oral 20 mg FMN/kg
Procedure: The study was carried out in rats at a 20 mg FMN/kg dose. The plasma concentration profiles and the PK parameters are presented in Figure 9 and Table 4, respectively.
The experiments were carried out in accordance with the Guidelines for Animal Experimentation of Nonclinical Center, Chaon Co. Ltd. (Yongin, Republic of Korea) and approved by the Animal Ethics Committee of the institution (CE23665) on 13 February 2024. Male Sprague−Dawley rats (230−300 g, 8 weeks) were obtained from Dae Han Bio Link Co., Ltd. (Eumseong-gun, Republic of Korea). All rats had free access to food and water in a controlled environment for one week. […] After stirring for 5 min at 37 °C, an appropriate volume (about 200 μL) of suspension was delivered via oral gavage at a dosage of 20 mg/kg body weight. Approximately 300 μL blood samples were obtained from tail veins and placed into tubes pretreated with sodium citrate before and after 0.25, 0.5, 1, 2, 4, 8, and 24 h of dosing. Blood samples were immediately centrifuged at 5000 rpm for 10 min. All the plasma samples were stored at −80 °C until analysis. FMN from plasma samples were prepared for analysis by liquid–liquid extraction using methyl tert-butyl ether according to the following steps: 60 µL internal standard (IS) solution (10 ng/mL in 50% methanol) was added to 70 µL plasma sample and […] was placed in a 15 mL tube. The sample solution was vortexed for 10 min followed by centrifugation for 5 min at 4000 rpm. The upper organic layer was transferred to a clean test tube and evaporated on a heating block at 50 °C under nitrogen. The residue was dissolved in the 50% acetonitrile (900 µL, in 0.1% formic acid) and mixed on a vortex mixer for 30 s. Resulting sample solution was transferred to auto-sampler vials, and 5 µL aliquot was injected into the LC/MS/MS system for analysis of FMN by a validated method as described below.
The pharmacokinetic data were analyzed by Winnlene (China Pharmaceutical University, Nanjing, China), using the noncompartmental method to calculate the peak plasma concentration (Cmax), the time to reach Cmax (Tmax), and the area under the plasma concentration−time curve (AUC).
FMN quantitative analysis was carried out using Agilent 1200 system (Agilent, Waldbronn, Germany) with triple quadrupole mass spectrometry API5000 (ABSciex, Vaughan, ON, Canada) operated in negative electrospray ionization using MRM mode. A Luna C8(2) column (2.1 mm I.D., 100 mm length, 5 μm; Phenomenex, Torrance, CA, USA) was maintained at 40 °C. Gradient elution was carried out at a flow rate of 0.3 mL/min using mobile phase A (distilled water) and mobile phase B (acetonitrile). The gradient applied was as follows: from 0 to 2.5 min, 50% B; from 2.6 to 7.0 min, 95% B; and from 7.1 to 11.5 min, 50% B. Sample volumes of 5 μL were injected. The fragmentation transitions were m/z 267.1 → 252.0 for FMN and m/z 197.0 → 92.0 for […], respectively. Optimized instrument settings specific for FMN and IS were as follows: curtain gas, 20 psi; ion source gas 1, 50 psi; ion source gas 2, 50 psi; ion spray voltage, −4500 V; turbo heater temperature, 650 °C. The precursor ions of FMN and IS were formed using declustering potentials of −90 and −40 V, respectively, and their precursor ions were fragmented at collision energies of −28 and −42 eV by collision-activated dissociation with nitrogen at a pressure setting of 5 (arbitrary units). Both quadrupoles were maintained at unit resolution. The ratio of the standard to IS peak area was used for calibration by linear regression analysis.

[2] = Physical stability test (PXRD after storage); assay type: physicochemical
Procedure: Powder samples in closed glass vials were stored at 4 and 40 °C. They were then analyzed by PXRD for crystallization at given time points. PXRD measurement conditions were the same as described above.

[3] = Powder dissolution experiment in bio-relevant media (FaSSGF, FaSSIF); conditions: 37 °C
Procedure: Bio-relevant media, FaSSGF and FaSSIF, were used for powder dissolution tests to mimic in vivo environments.
Powder samples were sieved through a 300 µm sieve. FaSSGF and FaSSIF were prepared according to the literature, except pepsin was not included in FaSSGF [41]. Samples equivalent to 5 mg of FMN were added to 20 mL glass vials containing 10 mL of FaSSGF or FaSSIF. Sample vials were placed in a shaking incubator (SIF-6000R, Jeio Tech, Daejeon, Republic of Korea) at 37 °C. Aliquots (1 mL) were collected at designated time points and filtered through a 0.45 µm PVDF filter and diluted with the HPLC mobile phase for HPLC analysis. Additional test for cocrystal was carried out in the presence of PVP K30 (2.5 mg/mL) in FaSSGF or FaSSIF.
FMN quantitative analysis was carried out using a Shimadzu system (Japan) equipped with a C8 column (5 μm, 4.6 mm I.D., and 150 mm length, Waters, Milford, MA, USA) at room temperature. The mobile phase was composed of methanol/water (60:40, v/v). Samples were injected in a volume of 10 μL with a total flow rate set at 1.0 mL/min. Detection was carried out at a UV wavelength of 254 nm. The area of the standard was used for calibration by linear regression analysis.

[4] = plasma FMN, suspension in 1% PVP-K30, n = 4

| Molecule | AUC(0-inf) ([1]; male, Sprague-Dawley, rat, 20 mg/kg, plasma FMN, crystalline FMN suspension in 1% PVP-K30, n = 4) [ng·h/mL] | AUC(0-t) ([1]; male, Sprague-Dawley, rat, 20 mg/kg, plasma FMN, crystalline FMN suspension in 1% PVP-K30, n = 4, mean ± SD) [ng·h/mL] | Cmax ([1]; male, Sprague-Dawley, rat, 20 mg/kg, plasma FMN, crystalline FMN suspension in 1% PVP-K30, n = 4, read-out: Cmax) [ng/mL] | half-life ([1]; male, Sprague-Dawley, rat, 20 mg/kg, plasma FMN, suspension in 1% PVP-K30, n = 4) [h] | Tmax ([1]; male, Sprague-Dawley, rat, 20 mg/kg, plasma FMN, suspension in 1% PVP-K30, n = 4, read-out: Tmax) [h] | AUCinf [1, 4] [ng·h/mL] | Cmax [1, 4] [ng/mL] | T1/2 [1, 4] [h] | Tmax [1, 4] [h] | AUCt ([1]; plasma FMN, suspension in 1% PVP-K30, n = 4, mean ± SD) [ng·h/mL] | increase in AUC compared to crystalline FMN [1] [fold] | increase in Cmax compared to crystalline FMN [1] [fold] | physical stability (PXRD) after storage ([2]; six months at 4 and 40 °C, closed glass vials) | physical stability (PXRD) after storage ([2]; six months at 40 °C) | dissolution rate and concentration at 6 h compared with crystalline FMN [3] |
| --- | --- | --- | --- | --- | --- | --- | --- | --- | --- | --- | --- | --- | --- | --- | --- |
| COc1ccc(-c2coc3cc(O)ccc3c2=O)cc1 [FMN, Formononetin] | 16.4 ± 1.51 | 10.4 ± 3.19 | 1.81 ± 0.73 | 7.1 ± 3.35 | 5 ± 2 |  |  |  |  |  |  |  |  |  |  |
| formononetin-imidazole [FMN-IMD cocrystal] |  |  |  |  |  | 44.52 ± 19.11 | 8.93 ± 6.66 | 5.60 ± 2.19 | 0.44 ± 0.38 | 37.38 ± 20.97 | 3.58 | 4.93 | remained the same for six months | no changes in the PXRD; also recorded: stable for six months | faster dissolution rate and higher concentration at the 6-h time point |
